± gives the standard deviation of the averaged measurements.
Test: TIMS collisional cross section (CCS, N2) of the lipid ion; higher = larger ion cross section
Settings: ionization mode: positive, one isomer drawn

Row | SMILES | TIMS collisional cross section (sample type: HeLa) | TIMS collisional cross section (sample type: Liver) | TIMS collisional cross section (sample type: plasma)
1 | CCCCCCCC/C=C\CCCCCCCC(=O)OC[C@@H](COC(=O)CCCCCCCCCCCCCCC)OC(=O)CCCCCCCCCCCCCCCCC [TG 16:0_18:0_18:1] (ion (formula + adduct): [C55H104O6+NH4] 1+) | 324.4 Å² | 324.5 ± 0.14 Å² | 324.45 ± 0.35 Å²
2 | CCCCCCCCCCC/C=C/[C@@H](O)[C@H](COP(=O)([O-])OCC[N+](C)(C)C)NC(=O)CCCCCCCCCCCCCCC [SM d16:1_16:0@] (ion (formula + adduct): [C37H75N2O6P+H] 1+) |  |  | 279.1 Å²
3 | CCCCCCCCCCCCCCCCCC(=O)O[C@H](CO)COP(=O)(O)OCCN [LPE 18:0] (ion (formula + adduct): [C23H48NO7P+H] 1+) | 221.7 Å² | 222 Å² | 
4 | CC/C=C\C/C=C\C/C=C\C/C=C\C/C=C\CCCC(=O)OC[C@H](COP(=O)(O)O[C@H]1C(O)C(O)C(O)[C@@H](O)C1O)OC(=O)CCCCCCCCCCCCCCCCC (some centres undefined) [PI 20:5_18:0@] (ion (formula + adduct): [C47H81O13P+H] 1+) |  |  | 308 Å²
5 | CCCCCCCCCCCCCCCCCCCC(=O)OC[C@@H](COC(=O)CCCCCCCCCCCCCCC)OC(=O)CCCCCCCCCCCCCCCCC [TG 16:0_18:0_20:0] (ion (formula + adduct): [C57H110O6+NH4] 1+) | 332.05 ± 0.21 Å² |  | 332.5 ± 0.14 Å²
6 | CCCCCCCC/C=C\CCCCCCCCCC(=O)OC[C@@H](COC(=O)CCCCCCCCCCCCCCC)OC(=O)CCCCCCCCCCCCCCC [TG 16:0_16:0_20:1] (ion (formula + adduct): [C55H104O6+NH4] 1+) | 324.7 Å² |  | 
7 | CC/C=C\C/C=C\C/C=C\C/C=C\CCCCCCC(=O)O[C@H](COCCCCCCCCCC/C=C\CCCCCCCC)COP(=O)([O-])OCC[N+](C)(C)C [PC O- 20:1@_20:4] (ion (formula + adduct): [C48H88NO7P+H] 1+) |  | 299.9 Å² | 
8 | CCCCCC/C=C\CCCCCCCC(=O)OC[C@@H](COC(=O)CCCCCCCCCCCC)OC(=O)CCCCCCCCCCCCCC [TG 13:0_15:0_16:1] (ion (formula + adduct): [C47H88O6+NH4] 1+) | 299.7 Å² | 299.6 Å² | 
9 | CCCCCCC/C=C\CCCCCCCC(=O)OC[C@@H](COC(=O)CCCCCCCCCCCCCC)OC(=O)CCCCCCCCCCCCCCC [TG 15:0_16:0_17:1] (ion (formula + adduct): [C51H96O6+NH4] 1+) |  | 311.4 Å² | 
10 | CCCCCCCC/C=C\CCCCCCCCCCCC(=O)OC[C@@H](COC(=O)CCCCCCCCCCCCCCCCC)OC(=O)CCCCCCCCCCCCCCCCCCCCC [TG 18:0_22:0_22:1] (ion (formula + adduct): [C65H124O6+NH4] 1+) |  |  | 352.8 Å²
11 | CCCCCCCCCCCCC/C=C/[C@@H](O)[C@H](COP(=O)([O-])OCC[N+](C)(C)C)NC(=O)CCCCCCCCCCCCCCCCCCC [SM d18:1_20:0@] (ion (formula + adduct): [C43H87N2O6P+H] 1+) |  |  | 297 Å²
12 | CC/C=C\C/C=C\C/C=C\C/C=C\C/C=C\C/C=C\CCC(=O)O[C@H](COC(=O)CCCC/C=C\C/C=C\C/C=C\CCCCC)COP(=O)([O-])OCC[N+](C)(C)C [PC 18:3_22:6@] (ion (formula + adduct): [C48H78NO8P+H] 1+) |  | 289.6 Å² | 
13 | CCCCCC/C=C\CCCCCCCCCC(=O)O[C@H](COC(=O)CCCCCCCCCCCCCCCCC)COP(=O)([O-])OCC[N+](C)(C)C [PC 18:0_18:1] (ion (formula + adduct): [C44H86NO8P+H] 1+) | 294.7 Å² |  | 295.2 Å²
14 | CCCCCCCCC/C=C\CCCCCCCC(=O)OC[C@@H](COC(=O)CCCCCCCCCCCCCCC)OC(=O)CCCCCCCCCCCCCCC [TG 16:0_16:0_19:1] (ion (formula + adduct): [C54H102O6+NH4] 1+) | 321.5 Å² |  | 
15 | CCCCCC/C=C\CCCCCCCCCCOC[C@@H](O)COP(=O)([O-])OCC[N+](C)(C)C [LPC O- 18:1] (ion (formula + adduct): [C26H54NO6P+H] 1+) | 233.6 Å² |  | 233.67 ± 0.64 Å²
16 | CCCCCCCC/C=C\CCCCCCCC(=O)OC[C@@H](COC(=O)CCCCCCCCCCCCC)OC(=O)CCCCCCCCCCCCCCC [TG 14:0_16:0_18:1] (ion (formula + adduct): [C51H96O6+NH4] 1+) | 311.9 ± 0.14 Å² | 312.4 Å² | 312.07 ± 0.22 Å²
17 | CCCCCCCCCCCCCCCCCCCCCCCC(=O)N[C@@H](COP(=O)([O-])OCC[N+](C)(C)C)[C@H](O)CCCCCCCCCCCCCCC [SM d18:0_24:0@] (ion (formula + adduct): [C47H97N2O6P+H] 1+) |  |  | 309.6 Å²
18 | CCCCCCCC/C=C\CCCCCCCCCCCCCCCC(=O)N[C@@H](CO)[C@H](O)/C=C/CCCCCCCCCCCCC [Cer d18:1_26:1@] (ion (formula + adduct): [C44H85NO3+H] 1+) | 284.9 Å² | 289.4 Å² | 
19 | CCCCCCCC/C=C\CCCCCCCCCC(=O)OC[C@@H](COC(=O)CCCCCCCCCCCCC)OC(=O)CCCCCCC/C=C\CCCCCCCC [TG 14:0_18:1_20:1] (ion (formula + adduct): [C55H102O6+NH4] 1+) | 322.3 Å² | 322.4 Å² | 
20 | CC/C=C/C=C/C=C/C=C/CCCCCCCC(=O)OC[C@@H](O)COP(=O)([O-])OCC[N+](C)(C)C [LPC 18:4] (ion (formula + adduct): [C26H46NO7P+H] 1+) |  |  | 220.8 Å²
21 | CCCCCCCCCCCCC/C=C/C=C/C(=O)OC[C@@H](O)COP(=O)([O-])OCC[N+](C)(C)C (ion (formula + adduct): [C26H50NO7P+H] 1+) | 228.2 Å² |  | 228.1 ± 0.42 Å²
22 | CCCCCCCC/C=C\CCCCCCCC(=O)OC[C@@H](COC(=O)CCCCCCCCCCCCCCC)OC(=O)CCCCCCCCCCCCCCCC [TG 16:0_17:0_18:1] (ion (formula + adduct): [C54H102O6+NH4] 1+) | 321.9 Å² | 321.6 Å² | 321.6 Å²
23 | CCCCCCCCCCCCCCCCCC(=O)OC[C@@H](COC(=O)CCCCCCCCCCCCCC)OC(=O)CCCCCCCCCCCCCCC [TG 15:0_16:0_18:0] (ion (formula + adduct): [C52H100O6+NH4] 1+) |  |  | 317.33 ± 0.31 Å²

Next, values leading:

Row | TIMS collisional cross section (sample type: HeLa) | TIMS collisional cross section (sample type: Liver) | TIMS collisional cross section (sample type: plasma) | SMILES
24 | 312.9 Å² | 313.6 Å² |  | CCCCCCC/C=C\CCCCCCCC(=O)O[C@@H](COC(=O)CCCCCCC/C=C\CCCCCCCC)COC(=O)CCCCCCCCCCCCC [TG 14:0_17:1_18:1] (ion (formula + adduct): [C52H96O6+NH4] 1+)
25 |  | 263.9 Å² |  | CCCCC/C=C\C/C=C\C/C=C\C/C=C\CCCC(=O)O[C@@H](CO)COC(=O)CCCCCCCCCCCCCCC [DG 16:0_20:4_0:0] (ion (formula + adduct): [C39H68O5+H] 1+)
26 |  |  | 268.2 Å² | CCCCC/C=C\C/C=C\CCCCCCCCCC(=O)O[C@@H](CO)COC(=O)CCCCCCC/C=C\CCCCCCCC [DG 18:1_20:2_0:0] (ion (formula + adduct): [C41H74O5+NH4] 1+)
27 | 305 Å² |  |  | CCCCC/C=C\CCCCCCCC(=O)OC[C@H](COC(=O)CCCCCCC/C=C\CCCCCC)OC(=O)CCCCCCC/C=C\CCCCCC [TG 15:1_16:1_16:1] (ion (formula + adduct): [C50H90O6+NH4] 1+)
28 |  | 271.8 Å² |  | CCCCCCCC/C=C\CCCCCCCCCC(=O)O[C@@H](CO)COC(=O)CCCCCCC/C=C\CCCCCCCC [DG 18:1_20:1_0:0] (ion (formula + adduct): [C41H76O5+NH4] 1+)
29 |  |  | 292.4 Å² | CCCCC/C=C\C/C=C\C/C=C\C/C=C\CCCC(=O)O[C@H](COC(=O)CCCCCCCCCCCCCCCC)COP(=O)([O-])OCC[N+](C)(C)C [PC 17:0@_20:4] (ion (formula + adduct): [C45H82NO8P+H] 1+)
30 | 261.1 Å² | 261.3 Å² | 261.2 Å² | CCCCC/C=C\C/C=C\CCCCCCCC(=O)O[C@@H](CO)COC(=O)CCCCCCC/C=C\CCCCCCCC [DG 18:1_18:2_0:0] (ion (formula + adduct): [C39H70O5+NH4] 1+)
31 |  | 310.7 ± 0.99 Å² | 310.4 Å² | CCCCC/C=C\C/C=C\CCCCCCCC(=O)OC[C@@H](COC(=O)CCCCCCCCCCCCCC)OC(=O)CCCCCCC/C=C\CCCCCC [TG 15:0_16:1_18:2] (ion (formula + adduct): [C52H94O6+NH4] 1+)
32 | 310.8 Å² | 312.2 Å² |  | CCCCC/C=C\CCCCCCCC(=O)OC[C@H](COC(=O)CCCCCCC/C=C\CCCCCCCC)OC(=O)CCCCCCC/C=C\CCCCCC [TG 15:1_16:1_18:1] (ion (formula + adduct): [C52H94O6+NH4] 1+)
33 |  | 294.4 Å² |  | CCCCC/C=C\C/C=C\CCCCCCCC(=O)OC[C@H](COP(=O)([O-])OCC[N+](C)(C)C)OC(=O)CCCCCCCCCCCCCCCCCC [PC 18:2_19:0] (ion (formula + adduct): [C45H86NO8P+H] 1+)
34 |  |  | 314.2 Å² | CCCCC/C=C\C/C=C\C/C=C\C/C=C\CCCC(=O)OC[C@@H](COC(=O)CCCCCCCCCCCCC)OC(=O)CCCCCCCCCCCCCCC [TG 14:0_16:0_20:4] (ion (formula + adduct): [C53H94O6+NH4] 1+)
35 |  | 268.2 Å² |  | CCCCC/C=C\C/C=C\CCCCCCCC(=O)OC[C@H](CO)OC(=O)CCCCCCCCC/C=C\CCCCCCCC [DG 18:2_20:1_0:0] (ion (formula + adduct): [C41H74O5+NH4] 1+)

From the supplement of paper PMC6965134
